Source: US20180353483A1, “PHARMACEUTICAL COMPOSITIONS AND METHODS FOR INDOLEAMINE, 2, 3-DIOXYGENASE INHIBITION AND INDICATIONS THEREFOR” (Incyte Corporation, priority 2015, published 2018)
Where two headings read alike, the source gives them in different places.

Assay: Pharmacokinetics of Compound 1 in combination with MK-3475 in subjects with various cancers
Type: in vivo, human
Protocol: The subjects were not limited to a specific cancers and study include subjects with various cancers. […] One treatment cycle consisted of 21 days. […] Additional subjects were enrolled in a cohort to achieve the minimum of 3 evaluable subjects if dropouts or dose interruptions or reductions occur that result in a subject being non-evaluable for DLTs. […] An additional safety cohort was opened at 100 mg BID in parallel to 300 mg BID being tested. This may also be limited to subjects with melanoma, NSCLC, or specific cancer types from among those included in Phase 1. The RP2D was selected from the evaluated safety expansions.
If a dose was missed by more than 4 hours, that dose was skipped and was resumed at the scheduled time.
Pharmacokinetic samples were obtained at the visits of Cycle 1 Day 1, Cycle 1 Day 8 and Cycle 2 Day 1. […] The exact date and time of the PK blood draws were recorded in the eCRF along with the date and time of the last dose of study drug and details of the last meal preceding the blood draw.
The planned PK time points were used for preliminary PK analyses.

[1] = subjects with dose reduction before C4D1, 50 mg BID, C1D8, mean ± SD

Question: For `NS(=O)(=O)NCCNc1nonc1C(=NO)Nc1ccc(F)c(Br)c1` [Compound 1, 4-({2-[(aminosulfonyl)amino]ethyl}amino)-N-(3-bromo-4-fluorophenyl)-N′-hydroxy-1,2,5-oxadiazole-3-carboximidamide], which AUC(0-t) (human, plasma, oral, 100 mg, Diagnosis DLBCL, first dose, geometric mean, read-out: AUC0-t) is on record?
Answer: 1.9 µM·h

Question: And the Cmax (human, plasma, oral, 100 mg, Diagnosis DLBCL, first dose, mean ± SD)?
Answer: 732 ± 370 nM

Question: And the tmax (human, plasma, oral, 100 mg, Diagnosis DLBCL, first dose, median, read-out: tmax)?
Answer: 3 h

Question: And the Cmax (human, plasma, oral, 100 mg, Diagnosis GU, first dose, geometric mean)?
Answer: 878 nM

Question: What about the AUC(0-t) (human, plasma, oral, 100 mg, Diagnosis GU, first dose, geometric mean, read-out: AUC0-t) of the same compound?
Answer: 2.71 µM·h

Question: What about the Cmax (human, plasma, oral, 100 mg, Diagnosis GU, first dose, mean ± SD) of the same compound?
Answer: 986 ± 492 nM

Question: And the AUC(0-t) (human, plasma, oral, 100 mg, Diagnosis GU, first dose, mean ± SD, read-out: AUC0-t)?
Answer: 2.96 ± 1.28 µM·h

Question: And the AUC(0-t) (human, plasma, oral, 100 mg, Diagnosis MEL, first dose, geometric mean, read-out: AUC0-t)?
Answer: 2.37 µM·h

Question: And the Cmax (human, plasma, oral, 100 mg, Diagnosis MEL, first dose, mean ± SD)?
Answer: 870 ± 347 nM

Question: And the AUC(0-t) (human, plasma, oral, 100 mg, Diagnosis MEL, first dose, mean ± SD, read-out: AUC0-t)?
Answer: 2.48 ± 0.773 µM·h

Question: What about the Cmax (human, plasma, oral, 100 mg, Diagnosis NSCLC PD-L1 High, first dose, geometric mean) of the same compound?
Answer: 878 nM

Question: What about the AUC(0-t) (human, plasma, oral, 100 mg, Diagnosis NSCLC PD-L1 High, first dose, geometric mean, read-out: AUC0-t) of the same compound?
Answer: 2.62 µM·h

Question: And the Cmax (human, plasma, oral, 100 mg, Diagnosis NSCLC PD-L1 High, first dose, mean ± SD)?
Answer: 1020 ± 573 nM

Question: And the AUC(0-t) (human, plasma, oral, 100 mg, Diagnosis NSCLC PD-L1 High, first dose, mean ± SD, read-out: AUC0-t)?
Answer: 2.88 ± 1.3 µM·h

Question: What about the tmax (human, plasma, oral, 100 mg, Diagnosis NSCLC PD-L1 High, first dose, median, read-out: tmax) of the same compound?
Answer: 1.5 h

Question: What about the Cmax (human, plasma, oral, 100 mg, Diagnosis NSCLC PD-L1 Low/NE, first dose, geometric mean) of the same compound?
Answer: 857 nM

Question: And the AUC(0-t) (human, plasma, oral, 100 mg, Diagnosis NSCLC PD-L1 Low/NE, first dose, geometric mean, read-out: AUC0-t)?
Answer: 2.66 µM·h

Question: And the AUC(0-t) (human, plasma, oral, 100 mg, Diagnosis NSCLC PD-L1 Low/NE, first dose, mean ± SD, read-out: AUC0-t)?
Answer: 2.77 ± 0.839 µM·h

Question: What about the Cmax (human, plasma, oral, 100 mg, Diagnosis OC, first dose, geometric mean) of the same compound?
Answer: 886 nM

Question: What about the AUC(0-t) (human, plasma, oral, 100 mg, Diagnosis OC, first dose, geometric mean, read-out: AUC0-t) of the same compound?
Answer: 2.99 µM·h

Question: And the Cmax (human, plasma, oral, 100 mg, Diagnosis OC, first dose, mean ± SD)?
Answer: 967 ± 405 nM

Question: What about the AUC(0-t) (human, plasma, oral, 100 mg, Diagnosis OC, first dose, mean ± SD, read-out: AUC0-t) of the same compound?
Answer: 3.16 ± 1.1 µM·h

Question: And the tmax (human, plasma, oral, 100 mg, Diagnosis RCC, first dose, individual values of 2 subjects, read-out: tmax)?
Answer: 3 h

Question: What about the Cmax (human, plasma, oral, 100 mg, Diagnosis SCCHN, first dose, geometric mean) of the same compound?
Answer: 649 nM

Question: And the AUC(0-t) (human, plasma, oral, 100 mg, Diagnosis SCCHN, first dose, geometric mean, read-out: AUC0-t)?
Answer: 2.06 µM·h

Question: And the Cmax (human, plasma, oral, 100 mg, Diagnosis SCCHN, first dose, mean ± SD)?
Answer: 769 ± 439 nM

Question: And the Cmax (human, plasma, oral, 100 mg, Diagnosis TNBC, first dose, geometric mean)?
Answer: 898 nM

Question: And the AUC(0-t) (human, plasma, oral, 100 mg, Diagnosis TNBC, first dose, geometric mean, read-out: AUC0-t)?
Answer: 2.82 µM·h

Question: What about the Cmax (human, plasma, oral, 100 mg, Diagnosis TNBC, first dose, mean ± SD) of the same compound?
Answer: 1030 ± 574 nM

Question: What about the AUC(0-t) (human, plasma, oral, 100 mg, Diagnosis TNBC, first dose, mean ± SD, read-out: AUC0-t) of the same compound?
Answer: 3.08 ± 1.39 µM·h

Question: What about the AUC(0-t) (human, plasma, oral, 100 mg, by dose, 100 mg BID, steady state C1D8, geometric mean, read-out: AUC0-12 h (converted)) of the same compound?
Answer: 3.57 µM·h

Question: And the AUC(0-t) (human, plasma, oral, 100 mg, by dose, 100 mg BID, steady state C1D8, mean ± SD, read-out: AUC0-12 h (converted))?
Answer: 3.82 ± 1.37 µM·h

Question: What about the AUC(0-t) (human, plasma, oral, 100 mg, by dose, 100 mg, first dose, mean ± SD, read-out: AUC0-t) of the same compound?
Answer: 2.47 ± 0.861 µM·h

Question: What about the AUC(0-t) (human, plasma, oral, 300 mg, Cohort 6, 300 mg BID, steady state C1D8, geometric mean, read-out: AUC0-12 h (converted)) of the same compound?
Answer: 11.3 µM·h

Question: What about the AUC(0-t) (human, plasma, oral, 300 mg, Cohort 6, 300 mg BID, steady state C1D8, mean ± SD, read-out: AUC0-12 h (converted)) of the same compound?
Answer: 12.3 ± 6.09 µM·h

Question: And the Cmax (human, plasma, oral, 300 mg, Cohort 6, 300 mg, first dose, geometric mean)?
Answer: 1790 nM

Question: What about the AUC(0-t) (human, plasma, oral, 300 mg, Cohort 6, 300 mg, first dose, geometric mean, read-out: AUC0-t) of the same compound?
Answer: 6.92 µM·h

Question: What about the Cmax (human, plasma, oral, 300 mg, Cohort 6, 300 mg, first dose, mean ± SD) of the same compound?
Answer: 2220 ± 1720 nM

Question: And the AUC(0-t) (human, plasma, oral, 300 mg, Cohort 6, 300 mg, first dose, mean ± SD, read-out: AUC0-t)?
Answer: 7.47 ± 3.32 µM·h

Question: And the AUC(0-t) (human, plasma, oral, 300 mg, Cohort 7, 300 mg BID, steady state C1D8, geometric mean, read-out: AUC0-12 h (converted))?
Answer: 11.3 µM·h

Question: What about the Cmax (human, plasma, oral, 300 mg, Cohort 7, 300 mg BID, steady state C1D8, mean ± SD) of the same compound?
Answer: 2750 ± 1220 nM

Question: And the AUC(0-t) (human, plasma, oral, 300 mg, Cohort 7, 300 mg BID, steady state C1D8, mean ± SD, read-out: AUC0-12 h (converted))?
Answer: 12.2 ± 5.92 µM·h

Question: And the Cmax (human, plasma, oral, 300 mg, Cohort 7, 300 mg, first dose, geometric mean)?
Answer: 2170 nM

Question: And the AUC(0-t) (human, plasma, oral, 300 mg, Cohort 7, 300 mg, first dose, geometric mean, read-out: AUC0-t)?
Answer: 6.88 µM·h

Question: What about the Cmax (human, plasma, oral, 300 mg, Cohort 7, 300 mg, first dose, mean ± SD) of the same compound?
Answer: 2330 ± 925 nM

Question: And the AUC(0-t) (human, plasma, oral, 300 mg, Cohort 7, 300 mg, first dose, mean ± SD, read-out: AUC0-t)?
Answer: 7.38 ± 2.86 µM·h

Question: And the AUC(0-t) (human, plasma, oral, 300 mg, by dose, 300 mg BID, steady state C1D8, geometric mean, read-out: AUC0-12 h (converted))?
Answer: 11.3 µM·h

Question: What about the Cmax (human, plasma, oral, 300 mg, by dose, 300 mg BID, steady state C1D8, mean ± SD) of the same compound?
Answer: 2740 ± 1190 nM

Question: What about the AUC(0-t) (human, plasma, oral, 300 mg, by dose, 300 mg BID, steady state C1D8, mean ± SD, read-out: AUC0-12 h (converted)) of the same compound?
Answer: 12.3 ± 5.81 µM·h

Question: And the AUC(0-t) (human, plasma, oral, 300 mg, by dose, 300 mg, first dose, geometric mean, read-out: AUC0-t)?
Answer: 6.89 µM·h

Question: And the AUC(0-t) (human, plasma, oral, 300 mg, by dose, 300 mg, first dose, mean ± SD, read-out: AUC0-t)?
Answer: 7.41 ± 2.95 µM·h

Question: What about the Cmax (human, plasma, oral, 300 mg, subjects with dose reduction before C4D1, 300 mg BID, C1D8, geometric mean) of the same compound?
Answer: 3000 nM

Question: And the AUC(0-t) (human, plasma, oral, 300 mg, subjects with dose reduction before C4D1, 300 mg BID, C1D8, geometric mean, read-out: AUC0-12 h (converted))?
Answer: 13.3 µM·h

Question: And the Cmax (human, plasma, oral, 300 mg, subjects with dose reduction before C4D1, 300 mg BID, C1D8, mean ± SD)?
Answer: 3180 ± 1280 nM

Question: And the AUC(0-t) (human, plasma, oral, 300 mg, subjects with dose reduction before C4D1, 300 mg BID, C1D8, mean ± SD, read-out: AUC0-12 h (converted))?
Answer: 14.6 ± 7.4 µM·h

Question: And the “dose proportionality of exposures” value (non-compartmental analysis)?
Answer: approximate dose-proportional exposures

Question: And the AUC0-12 h (subjects with dose reduction before C4D1, 50 mg BID, C1D8, geometric mean)?
Answer: (2.29) μM * h

Question: What about the AUC0-12 h [1] of the same compound?
Answer: 2.41 ± 0.980 µM·h

Question: What about the CL/F [1] of the same compound?
Answer: 52.0 ± 17.1 L/h

Question: And the tmax (subjects with dose reduction before C4D1, 50 mg BID, C1D8, median)?
Answer: 2.00 h

Question: What about the CL/F (subjects with dose reduction before C4D1, 300 mg BID, C1D8, mean ± SD) of the same compound?
Answer: 55.4 ± 23.0 L/h

Question: And the tmax (subjects with dose reduction before C4D1, 300 mg BID, C1D8, median)?
Answer: 2.00 h
